Data from ChEMBL document CHEMBL1795221, “In vitro and in vivo anticancer activity evaluation of ursolic acid derivatives” (Eur J Med Chem, 2011).

Columns and labels:
H22 [1] = assay: animal or person; details: Mus musculus, H22, ip, 168 h, read-out: INH
Description: Antitumor activity against mouse H22 cells xenografted in kunming mouse assessed as inhibition of tumor growth at 15 mg/kg, ip for 7 days

SH-SY5Y = assay: Cytotoxicity against human SH-SY5Y cells after 24 hrs by MTT assay; assay type: functional, cell-based
BGC-823 = assay: Cytotoxicity against human BGC823 cells after 24 hrs by MTT assay; assay type: functional, cell-based; details: BGC-823, 24 h
HeLa = assay: cells; details: Homo sapiens, 24 h
Description: Cytotoxicity against human HeLa cells after 24 hrs by MTT assay

HepG2 = assay: cells; details: Homo sapiens, HepG2, 24 h
Description: Cytotoxicity against human HepG2 cells after 24 hrs by MTT assay

[2] = Cytotoxicity against human HELF cells after 24 hrs by MTT assay; assay type: cell-based
H22 [3] = assay: Antitumor activity against mouse H22 cells xenografted in kunming mouse assessed as inhibition of tumor growth at 150 mg/kg, ip for 7 days; assay type: functional; details: 168 h, route intraperitoneal

Row | Compound | inhibition in vivo at 15 mg/kg (H22 [1]) | IC50 (SH-SY5Y) | IC50 (BGC-823) | IC50 (HeLa) | IC50 (HepG2) | IC50 [2] | inhibition in vivo at 150 mg/kg (H22 [3])
1 | O=P1(N(CCCl)CCCl)NCCCO1 (configuration not stated) [CYCLOPHOSPHAMIDE ANHYDROUS] | 55% | – | – | – | – | – | –
2 | C[C@H]1[C@H](C)CC[C@]2(C(=O)NC(Cc3ccc(O)cc3)C(=O)O)CC[C@]3(C)C(=CC[C@@H]4[C@@]5(C)CC[C@H](O)C(C)(C)[C@@H]5CC[C@]43C)[C@H]12 (some centres not stated) | – | > 100 µM | > 100 µM | > 100 µM | > 100 µM | > 100 µM | –
3 | C[C@H]1[C@H](C)CC[C@]2(C(=O)O)CC[C@]3(C)C(=CC[C@@H]4[C@@]5(C)CC[C@H](O)C(C)(C)[C@@H]5CC[C@]43C)[C@H]12 [URSOLIC ACID] | – | 54.6 µM | 66.4 µM | 33.1 µM | 68.8 µM | 21.3 µM | 36.2%
4 | C[C@H]1[C@H](C)CC[C@]2(C(=O)N3CCN(CCOCCO)CC3)CC[C@]3(C)C(=CC[C@@H]4[C@@]5(C)CC[C@H](O)C(C)(C)[C@@H]5CC[C@]43C)[C@H]12 | – | 30.3 µM | 35 µM | 23.8 µM | 36.7 µM | 28.1 µM | –
5 | C[C@H]1[C@H](C)CC[C@]2(C(=O)N3CCC(CCO)CC3)CC[C@]3(C)C(=CC[C@@H]4[C@@]5(C)CC[C@H](O)C(C)(C)[C@@H]5CC[C@]43C)[C@H]12 | – | > 100 µM | > 100 µM | 67.3 µM | > 100 µM | > 100 µM | –
6 | C[C@H]1[C@H](C)CC[C@]2(C(=O)OCCCO[N+](=O)[O-])CC[C@]3(C)C(=CC[C@@H]4[C@@]5(C)CC[C@H](O)C(C)(C)[C@@H]5CC[C@]43C)[C@H]12 | – | 89.6 µM | 98.3 µM | 69.4 µM | 87.4 µM | 82.6 µM | –
7 | COC(=O)C(Cc1ccc(O)cc1)NC(=O)[C@]12CC[C@@H](C)[C@H](C)[C@H]1C1=CC[C@@H]3[C@@]4(C)CC[C@H](OC(C)=O)C(C)(C)[C@@H]4CC[C@@]3(C)[C@]1(C)CC2 (some centres not stated) | – | > 100 µM | 83 µM | 67 µM | > 100 µM | 35.8 µM | –
8 | CC(=O)O[C@H]1CC[C@]2(C)[C@H]3CC=C4[C@@H]5[C@@H](C)[C@H](C)CC[C@]5(C(=O)N5CCN(CCO)CC5)CC[C@@]4(C)[C@]3(C)CC[C@H]2C1(C)C | – | 11.7 µM | 13.9 µM | 7.24 µM | 20.5 µM | 31 µM | –
9 | CCCCOC(=O)[C@]12CC[C@@H](C)[C@H](C)[C@H]1C1=CC[C@@H]3[C@@]4(C)CC[C@H](OC(C)=O)C(C)(C)[C@@H]4CC[C@@]3(C)[C@]1(C)CC2 | – | > 100 µM | > 100 µM | > 100 µM | > 100 µM | > 100 µM | –
10 | CC(=O)O[C@H]1CC[C@]2(C)[C@H]3CC=C4[C@@H]5[C@@H](C)[C@H](C)CC[C@]5(C(=O)N5CCC(CCO)CC5)CC[C@@]4(C)[C@]3(C)CC[C@H]2C1(C)C | – | 40.1 µM | 51.3 µM | 12.4 µM | 59.4 µM | 30 µM | –
11 | CC(=O)O[C@H]1C(=O)[C@@]2(C)[C@H]([C@H](OC(=O)c3ccccc3)[C@]3(O)C[C@H](OC(=O)[C@H](O)[C@@H](NC(=O)c4ccccc4)c4ccccc4)C(C)=C1C3(C)C)[C@]1(OC(C)=O)CO[C@@H]1C[C@@H]2O [PACLITAXEL] | – | 8.56 µM | 9.24 µM | 6.62 µM | 10.3 µM | 7.17 µM | –
12 | CC(=O)O[C@H]1CC[C@]2(C)[C@H]3CC=C4[C@@H]5[C@@H](C)[C@H](C)CC[C@]5(C(=O)NCCO)CC[C@@]4(C)[C@]3(C)CC[C@H]2C1(C)C | – | 49.4 µM | 48.5 µM | 16.3 µM | 46.6 µM | 27.8 µM | –
13 | CCOC(=O)[C@]12CC[C@@H](C)[C@H](C)[C@H]1C1=CC[C@@H]3[C@@]4(C)CC[C@H](O)C(C)(C)[C@@H]4CC[C@@]3(C)[C@]1(C)CC2 | – | 66.3 µM | 69.3 µM | 29.2 µM | 70.8 µM | 81.9 µM | –
14 | CC(=O)O[C@H]1CC[C@]2(C)[C@H]3CC=C4[C@@H]5[C@@H](C)[C@H](C)CC[C@]5(C(=O)N5CCN(CCOCCO)CC5)CC[C@@]4(C)[C@]3(C)CC[C@H]2C1(C)C | – | 9.51 µM | 12.8 µM | 6.28 µM | 15.3 µM | 38.9 µM | –
15 | CCCOC(=O)[C@]12CC[C@@H](C)[C@H](C)[C@H]1C1=CC[C@@H]3[C@@]4(C)CC[C@H](O)C(C)(C)[C@@H]4CC[C@@]3(C)[C@]1(C)CC2 | – | 92.5 µM | 79.7 µM | 48 µM | 89.1 µM | > 100 µM | –
16 | CCOC(=O)[C@]12CC[C@@H](C)[C@H](C)[C@H]1C1=CC[C@@H]3[C@@]4(C)CC[C@H](OC(C)=O)C(C)(C)[C@@H]4CC[C@@]3(C)[C@]1(C)CC2 | – | > 100 µM | > 100 µM | > 100 µM | > 100 µM | > 100 µM | –
17 | C[C@H]1[C@H](C)CC[C@]2(C(=O)N(CCO)CCO)CC[C@]3(C)C(=CC[C@@H]4[C@@]5(C)CC[C@H](O)C(C)(C)[C@@H]5CC[C@]43C)[C@H]12 | – | 21.4 µM | 39.3 µM | 14.4 µM | 35.7 µM | 36.9 µM | –
18 | C[C@H]1[C@H](C)CC[C@]2(C(=O)OCCCCO[N+](=O)[O-])CC[C@]3(C)C(=CC[C@@H]4[C@@]5(C)CC[C@H](O)C(C)(C)[C@@H]5CC[C@]43C)[C@H]12 | – | > 100 µM | > 100 µM | > 100 µM | > 100 µM | > 100 µM | –
19 | CCCCOC(=O)[C@]12CC[C@@H](C)[C@H](C)[C@H]1C1=CC[C@@H]3[C@@]4(C)CC[C@H](O)C(C)(C)[C@@H]4CC[C@@]3(C)[C@]1(C)CC2 | – | > 100 µM | > 100 µM | 63.2 µM | > 100 µM | > 100 µM | –
20 | C[C@H]1[C@H](C)CC[C@]2(C(=O)OCCO[N+](=O)[O-])CC[C@]3(C)C(=CC[C@@H]4[C@@]5(C)CC[C@H](O)C(C)(C)[C@@H]5CC[C@]43C)[C@H]12 | – | 71.1 µM | 84.2 µM | 36.2 µM | 79.6 µM | 68.1 µM | –
21 | CCCOC(=O)[C@]12CC[C@@H](C)[C@H](C)[C@H]1C1=CC[C@@H]3[C@@]4(C)CC[C@H](OC(C)=O)C(C)(C)[C@@H]4CC[C@@]3(C)[C@]1(C)CC2 | – | > 100 µM | > 100 µM | > 100 µM | > 100 µM | > 100 µM | –
22 | C[C@H]1[C@H](C)CC[C@]2(C(=O)NCCO)CC[C@]3(C)C(=CC[C@@H]4[C@@]5(C)CC[C@H](O)C(C)(C)[C@@H]5CC[C@]43C)[C@H]12 | – | 65 µM | 78.3 µM | 32.3 µM | 82.4 µM | 52.8 µM | –
23 | C[C@H]1[C@H](C)CC[C@]2(C(=O)NC(CO)C(=O)O)CC[C@]3(C)C(=CC[C@@H]4[C@@]5(C)CC[C@H](O)C(C)(C)[C@@H]5CC[C@]43C)[C@H]12 (some centres not stated) | – | 72.2 µM | 79.3 µM | 41.6 µM | 83 µM | 60.3 µM | –
24 | COC(=O)C(CO)NC(=O)[C@]12CC[C@@H](C)[C@H](C)[C@H]1C1=CC[C@@H]3[C@@]4(C)CC[C@H](OC(C)=O)C(C)(C)[C@@H]4CC[C@@]3(C)[C@]1(C)CC2 (some centres not stated) | – | 37.2 µM | 29 µM | 20.6 µM | 35.3 µM | 22.3 µM | –
25 | C[C@H]1[C@H](C)CC[C@]2(C(=O)N3CCN(CCO)CC3)CC[C@]3(C)C(=CC[C@@H]4[C@@]5(C)CC[C@H](O)C(C)(C)[C@@H]5CC[C@]43C)[C@H]12 | – | > 100 µM | 98.3 µM | 52.3 µM | > 100 µM | 32.8 µM | –
